Data on one molecule can be found in US6336949B1, “Slow release urea fertilizer composition and a process for the preparation of the said composition” (Council of Scientific & Industrial Research, priority 1999, dated 2002).

The subject of test [1] is Nitrosomonus. The test can be described thus: Nitrosomonus population in soil. It is filed as cell-based. As to conditions: no coating material; urea 100 mg N kg^−1 soil. How it is done:
(§1) Representative soil samples were analyzed for different forms of N i.e., urea N, NH4 and NO3-N at regular intervals for two weeks to assess the nitrification inhibitory properties of the materials in question following the standard procedures (Douglas and Bremner, 1970, Soil Sci. Soc. Am. Proc. 34:859-862). Another set of experiment was conducted to assay the total bacterial population, total actinomycetes population and nitrifying bacteria viz., Nitrosomons and Nitrobacber (Alexander and Clark, 1965, In. Method of Soil Analysis Part II (CA Black Eds) Am. Soc .Agron. Inc. Wisconsin, U.S.A.; KenKnight and Torariko. 1973, Agrokhimiya 7:3)

In test [2] the test system is urease. The following applies: no coating material; urea 100 mg N kg^−1 soil; 24 hours of incubation.
Test [3] relates to menthol mint (Mentha arvensis). The test can be described thus: Greenhouse pot culture experiment: herb yield, N accumulation, apparent N recovery. As to conditions: urea N 100 mg kg^−1, coating materials added at 1.00% w/w (Nil for urea alone). It is filed as in vivo. How it is done: To confirm the results of the incubation a pot culture experiment was conducted subsequently taking menthol mint (Mentha arvensis) as the test crops. Eight kg soil (<2 mm) were put in plastic container. The same fertilizers coating treatments as were in incubation experiment were imposed in this experiment, except that instead of two levels of coating materials, these were applied at 1.00% on v/w basis. The experiment was laid in a completely randomized design with four replications. The soils were analyzed for mineral forms of N at regular intervals. In addition, the plant samples were analyzed for N accumulation and apparent N recovery. [formula]

Test [4] relates to Total bacteria. Description: Total bacterial population in soil. It is filed as cell-based. As to conditions: no coating material; urea 100 mg N kg^−1 soil. How it is done:
as §1

In test [5] the test system is Actinomycetes. Description: Total actinomycetes population in soil. In kind it is cell-based. The following applies: no coating material; urea 100 mg N kg^−1 soil. How it is done:
as §1

The subject of test [6] is Nitrobacter. Description: Nitrobacter population in soil. It is filed as cell-based. The following applies: no coating material; urea 100 mg N kg^−1 soil. How it is done:
as §1

Consider `NC(N)=O` [Urea alone, Urea], for which the Nitrosomonus in test [1] is reported as 3.30 × 103, g^−1 soil. For the same molecule, in test [2], the Urease activity is 66.5 μg NH4—N liberated/g soil/hour. Further, in test [3], the “Apparent recovery (apparent N recovery)” value worked out at 29.1%, the Herb yield was 42.8 g pot^−1 and the N accumulation is 450 mg pot^−1. The “Apparent recovery (apparent N recovery)” value in test [3] (listed as urea alone) was found to be 29%. Also, in test [4], the Total bacteria is on record as 4.00 × 105, g^−1 soil. The Actinomycetes in test [5] is recorded as 5.66 × 104, g^−1 soil. Further, the Nitrobacter in test [6] is on record as 14.00 × 103, g^−1 soil.
